Patent US9745328B2, “Flap modulators” (JANSSEN PHARMACEUTICA NV, priority 2013, dated 2017)
Where a name gives a salt, the structure may show the parent alone.

What follows are compounds tested on leukotriene pathway in human whole blood (LTB4) (assay: Human whole blood assay (LTB4 levels after calcium ionophore A23187 stimulation)). Conditions: Homo sapiens, Table 6 (additional runs); human whole blood diluted 1:1, A23187 stimulation; read-out: Human Whole Blood LTB4 IC50 1:1.
Type: cell-based
Method: The ability of the compounds of the present invention to treat a FLAP-mediated disease and/or disorder, or associated symptoms or complications thereof, was determined using the following procedures. Binding assay data represent the average value obtained from two different assay plates, with samples run in duplicate on each plate. Human whole blood assay data represent a single replicate on an assay plate using whole blood from at least one healthy donor.
An in vitro cellular assay was performed using human whole blood collected in heparin-containing tubes, which was used to test the ability of compounds to modulate the leukotriene pathway in human whole blood. The blood was diluted 1:1 in RPMI medium, pre-incubated for 15 min at 37° Celsius with test compounds at various concentrations, and then stimulated with calcium ionophore, A23187 (7 μg/mL), for 30 min at 37° Celsius. The samples were then centrifuged and plasma was removed. The plasma was diluted in assay buffer and LTB4 levels were measured using a commercial kit (Enzo Life Sciences). The concentration of each compound that was required for half-maximal inhibition (modulation) of recombinant enzyme activity (IC50) was calculated by a 4-parameter equation using the program GraphPad Prism (GraphPad software).

Structure (SMILES) | IC50
C[C@@H](CO)NS(=O)(=O)c1ccccc1-c1ccc(-c2cnc(N)cn2)c(F)c1 [Example 25, (R)-4′-(5-Aminopyrazin-2-yl)-3′-fluoro-N-[(1R)-2-hydroxy-1-methylethyl]piphenyl-2-sulfonamicie] | 0.0263 µM
CCCS(=O)(=O)Nc1ccccc1-c1ccc(-c2cnc(N)cn2)c(F)c1 [Example 36, N-[4′-(5-Aminopyrazin-2-yl)-3′-fluorobiphenyl-2-yl]propane-1-sulfonamide] | 0.137 µM
Nc1cnc(-c2ccc(-c3ccccc3S(=O)(=O)N3CC[C@@H](N)C3)cc2F)cn1 [Example 92, (R)-5-(2′-((3-aminopyrrolidin-1-yl)sulfonyl)-3-fluoro-[1,1′-biphenyl]-4-yl)pyrazin-2-amine] | 0.309 µM
C[C@H](O)CNS(=O)(=O)c1ccccc1-c1ccc(-c2cnc(N)nc2)c(F)c1 [Example 279, 4′-(2-Aminopyrimidin-5-yl)-3′-fluoro-N-[(2S)-2-hydroxypropyl]biphenyl-2-sulfonamide trifluoroacetic acid salt] | 0.118 µM
C[C@@H](CO)NS(=O)(=O)c1ccccc1-c1ccc(-c2ccc(N)nc2)c(F)c1 [Example 347, (S)-4′-(6-aminopyridin-3-yl)-3′-fluoro-N-(1-hydroxypropan-2-yl)-[1,1′-biphenyl]-2-sulfonamide] | 0.161 µM

Same assay, conditions: Homo sapiens, human whole blood diluted 1:1, A23187 stimulation; Table 6 (additional runs); read-out: Human Whole Blood LTB4 IC50 1:1

Structure (SMILES) | IC50
CC(O)CN1CCC(S(=O)(=O)c2ncccc2-c2ccc(-c3cnc(N)cn3)c(F)c2)CC1 (racemic) [Example 905, 1-[4-({3-[4-(5-Aminopyrazin-2-yl)-3-fluorophenyl]pyridin-2-yl}sulfonyl)piperidin-1-yl]propan-2-ol] | 0.0529 µM
CC(C)S(=O)(=O)c1ncccc1-c1ccc(-c2cnc(N)cn2)c(F)c1 [Example 395, 5-(2-Fluoro-4-{2-[(1-methylethyl)sulfonyl]pyridin-3-yl}phenyl)pyrazin-2-amine] | 0.0269 µM
Nc1cnc(-c2ccc(-c3ccccc3C(=O)N3CCS(=O)(=O)CC3)cc2F)cn1 [Example 509, 5-{2′-[(1,1-Dioxidathiomorpholin-4-yl)carbonyl]-3-fluorobiphenyl-4-yl}pyrazin-2-amine] | 0.16 µM
Nc1ccnc(Oc2ccccc2-c2ccc(-c3cnc(N)nc3)c(F)c2)n1 [Example 529] | 0.0796 µM
Nc1cnc(-c2ccc(-c3ccccc3S(=O)(=O)NCC3(O)CNC3)cc2F)cn1 [Example 664] | > 1 µM
C[C@H](NC(=O)c1cc(C(F)(F)F)ccc1-c1ccc(-c2cnc(N)nc2)c(F)c1)C(F)(F)F [Example 788, 2-[4-(2-Aminopyrimidin-5-yl)-3-fluoro-phenyl]-5-(trifuoromethyl)-N-[(1S)-2,2,2-trifluoro-1-methyl-ethyl]enzamide] | 1.8 µM
CC(C)(C)C(=O)Nc1ncccc1-c1ccc(-c2cnc3[nH]ccc3c2)c(F)c1 [Example 802, N-{3-[3-Fluoro-4-(1H-pyrrolo[2,3-b]pyridin-5-yl)phenyl]pyridin-2-yl}-2,2-dimethylpropanamide] | > 1 µM
Nc1cnc(-c2ccc(-c3ccccc3-c3ccc(N)nn3)cc2F)cn1 [Example 863] | 0.14 µM

Same assay, conditions: Homo sapiens, human whole blood diluted 1:1 in RPMI, A23187 stimulation, LTB4; read-out: Human Whole Blood LTB4 IC50 1:1

Structure (SMILES) | IC50
C[C@@H](CO)NS(=O)(=O)c1ccccc1-c1ccc(-c2ccc(N)nc2)c(F)c1 [Example 347, (S)-4′-(6-aminopyridin-3-yl)-3′-fluoro-N-(1-hydroxypropan-2-yl)-[1,1′-biphenyl]-2-sulfonamide] | 0.161 µM
Nc1cnc(-c2ccc(-c3ccccc3S(=O)(=O)NCC3(O)CNC3)cc2F)cn1 [Example 664] | > 1 µM

Same assay, conditions: Table 6 (additional runs); human whole blood diluted 1:1, A23187 stimulation; read-out: Human Whole Blood LTB4 IC50 1:1

Structure (SMILES) | IC50
C[C@@H](NS(=O)(=O)c1ccccc1-c1ccc(-c2cnc(N)cn2)c(F)c1)C(F)(F)F [Example 20, (S)-4′-(5-Aminopyrazin-2-yl)-3′-fluoro-N-[(S)-2,2,2-trifluoro-1-methylethyl]biphenyl-2-sulfonamide] | 0.0085 µM

Each compound was assayed against human FLAP (Homo sapiens (Human), UniProt P20292) (assay: FLAP binding assay (HTRF format)). Conditions: Table 6 (additional runs), human FLAP wild type.
human FLAP, sequence (P20292 whole entry): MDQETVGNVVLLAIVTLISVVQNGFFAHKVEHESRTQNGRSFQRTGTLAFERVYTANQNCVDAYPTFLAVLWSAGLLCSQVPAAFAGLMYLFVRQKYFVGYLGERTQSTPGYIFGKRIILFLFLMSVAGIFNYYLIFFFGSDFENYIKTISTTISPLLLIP
Procedure, shortened: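 Samples were run in duplicate on each of two assay plates, the results were averaged, and the signal was expressed as an HTRF ratio.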

Structure (SMILES) | Ki
C[C@@H](NS(=O)(=O)c1ccccc1-c1ccc(-c2cnc(N)cn2)c(F)c1)C(F)(F)F [Example 20, (S)-4′-(5-Aminopyrazin-2-yl)-3′-fluoro-N-[(S)-2,2,2-trifluoro-1-methylethyl]biphenyl-2-sulfonamide] | 0.0009 µM
CCCS(=O)(=O)Nc1ccccc1-c1ccc(-c2cnc(N)cn2)c(F)c1 [Example 36, N-[4′-(5-Aminopyrazin-2-yl)-3′-fluorobiphenyl-2-yl]propane-1-sulfonamide] | 0.0081 µM

Same assay, conditions: human FLAP wild type, Table 6 (additional runs)

Structure (SMILES) | Ki
CC(O)CN1CCC(S(=O)(=O)c2ncccc2-c2ccc(-c3cnc(N)cn3)c(F)c2)CC1 (racemic) [Example 905, 1-[4-({3-[4-(5-Aminopyrazin-2-yl)-3-fluorophenyl]pyridin-2-yl}sulfonyl)piperidin-1-yl]propan-2-ol] | 0.0579 µM
Cc1cc(N)nc(Oc2ccccc2-c2ccc(-c3cnc(N)cn3)c(F)c2)n1 [Example 616, 2-{[4′-(5-Aminopyrazin-2-yl)-3′-fluorobiphenyl-2-yl]oxy}-6-methylpyrimidin-4-amine] | 0.0164 µM
Cc1cc(N)nc(Oc2ccccc2-c2ccc(-c3cnc(N)nc3)c(F)c2)n1 [Example 617, 5-{2′-[(4-Amino-6-methylpyrimidin-2-yl)oxy]-3-fluorobiphenyl-4-yl}pyrimidin-2-amine] | 0.162 µM
Nc1ncc(-c2ccc(-c3ccccc3Oc3cccc(C(F)(F)F)n3)cc2F)cn1 [Example 624, 5-(3-Fluoro-2′-{[6-(trifluoromethyl)pyridin-2-yl]oxy}biphenyl-4-yl)pyrimidin-2-amine] | 0.0327 µM
Nc1cnc(-c2ccc(-c3cccnc3OC3CCNCC3)cc2F)cn1 [Example 645] | > 10 µM
Nc1ncc(-c2ccc(-c3cccnc3OC3CCNCC3)cc2F)cn1 [Example 646, 5-{2-Fluoro-4-[2-(piperidin-4-yloxy)pyridin-3-yl]phenyl}pyrimidin-2-amine] | > 10 µM
Nc1cnc(-c2ccc(-c3cccnc3OC3CCS(=O)(=O)CC3)cc2F)cn1 [Example 647, 5-(4-{2-[(1,1-Dioxidotetrahydro-2H-thiopyran4-yl)oxy]pyridin-3-yl}-2-fluorophenyl)pyrazin-2-amine] | 0.227 µM
Nc1ncc(-c2ccc(-c3cccnc3OC3CCS(=O)(=O)CC3)cc2F)cn1 [Example 648, 5-(4-{2-[(1,1-Dioxidotetranydro-2H-thiopyran-4-yl)oxy]pyridin-3-yl}-2-fluorophenyl)pyrimidin-2-amine] | 0.834 µM
CC(C)(C)NS(=O)(=O)c1ccccc1-c1cnc(-c2cnc(N)nc2)c(F)c1 [Example 675, 2-[6-(2-Aminopyrimidin-5-yl)-5-fluoropyridin-3-yl]-N-tert-butylbenzenesulfonamide] | 0.001 µM
C[C@H](NS(=O)(=O)c1ccccc1-c1ccc(-c2cnc(N)nc2)nc1)C(F)(F)F [Example 685, 2-[6-(2-Aminopyrimidin-5-yl)pyridin-3-yl]-N-[(1S)-2,2,2-trifluoro-1-methylethyl]benzenesulfonamide trifluoroacetic acid salt] | 0.0592 µM
Nc1cnc(-c2ccc(-c3ccc(Br)cc3F)cc2F)cn1 [Example 696, 5-(4′-Bromo-2′,3-difluoroblphenyl-4-yl)pyrazin-2-amine] | 0.141 µM
N#Cc1ccccc1-c1ccc(-c2cnc(N)cn2)c(F)c1 [Example 701, 4′-(5-Aminopyrazin-2-yl)-3′-fluorobiphenyl-2-carbonitrile] | 0.132 µM
C[C@H]1COCCN1C(=O)c1ccccc1-c1ccc(-c2cnc(N)cn2)c(F)c1 [Example 774, 5-(3-Fluoro-2′-{[(3S)-3-methylmorpholin-4-yl]carbonyl}biphenyl-4-yl)pyrazin-2-amine] | 1.3 µM
C[C@@H]1COCCN1C(=O)c1ccccc1-c1ccc(-c2cnc(N)cn2)c(F)c1 [Example 775, 5-(3-Fluoro-2′-{[(3R)-3-methylmorpholin-4-yl]carbonyl}biphenyyl-4-yl)pyrazin-2-amine] | 0.0304 µM
C[C@H]1CN(C(=O)c2ccccc2-c2ccc(-c3cnc(N)cn3)c(F)c2)CCO1 [Example 776, 5-(3-Fluoro-2′-{[(2S)-2-methylmorpholin-4-yl]carbonyl}biphenyl-4-yl)pyrazin-2-amine] | 0.15 µM
C[C@H]1CN(C(=O)c2ccccc2-c2ccc(-c3cnc(N)nc3)c(F)c2)CCO1 [Example 777, 5-(3-Fluoro-2′-{[(2S)-2-methylmorpholin-4-yl]carbonyl}biphenyl-4-yl)pyrimidin-2-amine] | 1.62 µM
Nc1ncc(-c2ccc(-c3cccnc3S(=O)(=O)C3CCS(=O)(=O)CC3)cc2F)cn1 [Example 819, 4-((3-(4-(2-aminopyrimidin-5-yl)-3-fluorophenyl)pyridine-2-yl)sulfonyl)tetrahydro-2H-thiopyran 1,1-dioxide] | 0.0743 µM
